Values quoted from earlier work as cited in paper PMC11901578, “Polymethoxyflavones and Bone Metabolism” (Nutrients, 2025).
Like-named read-outs stand apart in the source and are kept apart here.

What was measured:
[1] = test system: osteoclast differentiation; design: method as in PMID 26044862; conditions: 20 μM, compared to 20 μM laricitrin and 20 μM myricetin; cited from earlier work
[2] = test system: HL-60 cells; design: method as in PMID 23225422; conditions: read-out: IC50, anti-proliferative effect on HL-60 cells; cited from earlier work
[3] = test system: serum TNF-α levels; design: method as in PMID 18816060; conditions: rats, intraperitoneal 100 mg/kg; cited from earlier work
[4] = test system: IL-1β mRNA expression in the hippocampus; design: method as in PMID 25884208; conditions: mice, subcutaneous 100 mg/kg; cited from earlier work
[5] = test system: bone resorption in mouse calvarial or alveolar bone organ cultures; conditions: 30 μM, mouse calvarial or alveolar bone organ cultures; cited from earlier work
[6] = test system: osteoclast differentiation in co-cultures of osteoblasts and bone marrow cells; conditions: cited from earlier work; for IC50: IL-1 +, read-out: IC50, osteoclast differentiation in co-culture system; for inhibitory effect on IL-1-induced osteoclast differentiation relative to nobiletin and tangeretin, respectively: TRAP-positive osteoclasts
[7] = test system: Raw264.7; conditions: RANKL +, cited from earlier work; for IC50: read-out: IC50, osteoclast differentiation in Raw264.7 cultures
[8] = test system: human umbilical vein endothelial cells (HUVECs); design: method as in PMID 22707269; conditions: read-out: IC50, anti-proliferative effect on HUVECs; cited from earlier work
[9] = test system: CIA rats; design: method as in PMID 31344704; conditions: daily oral administration for 14 days; cited from earlier work
[10] = test system: osteoclast differentiation; design: method as in PMID 22850615; conditions: 30 μM; cited from earlier work
[11] = test system: osteoclast differentiation in co-culture system; conditions: LPS +, 30 μM; cited from earlier work
[12] = test system: rheumatoid synovial fibroblasts (RASFs); design: method as in doi:10.3329/bjp.v10i3.22865; conditions: 50 and 100 μM; cited from earlier work
[13] = test system: alveolar bone loss in mice; conditions: LPS +, cited from earlier work
[14] = test system: zebrafish embryos; design: method as in PMID 22707269; conditions: 30 μM, cited from earlier work
[15] = test system: human periodontal ligament cells (HPDLCs); conditions: TNF-α, human periodontal ligament cells; cited from earlier work
[16] = test system: bone marrow macrophage (BMM) cultures; conditions: 2, 10, and 50 μM; cited from earlier work
[17] = test system: BTB and CNC homology 1 (BACH1); design: method as in PMID 38734708; conditions: cited from earlier work
[18] = test system: rats with ligature-induced periodontitis; design: method as in PMID 38734708; conditions: oral 5, 10, and 20 mg/kg/day for 3 weeks; cited from earlier work
[19] = test system: DMM-OA mice; conditions: DMM-OA mice, oral 50 mg/kg/day for 8 weeks; cited from earlier work
[20] = test system: periodontal ligament cells; design: method as in PMID 38734708; conditions: 2.5, 5, and 10 μM; cited from earlier work

COc1cc(-c2oc3cc(O)cc(O)c3c(=O)c2O)cc(OC)c1O [Syringetin, 3,4′,5,7-Tetrahydroxy-3′,5′-dimethoxyflavone]
inhibitory effect on M-CSF-/RANKL-induced osteoclast differentiation [1]: strongest inhibitory effect

COc1ccc(-c2oc3c(OC)c(OC)c(OC)c(OC)c3c(=O)c2O)cc1OC [Natsudaidain, 3′,4′,5,6,7,8-Hexamethoxy-3-hydroxyflavone]
IC50 [2]: 5 µM

COc1ccc(-c2oc3c(OC)c(OC)c(OC)c(OC)c3c(=O)c2OC)cc1OC [Heptamethoxyflavone, 3,3′,4′,5,6,7,8,-Heptamethoxyflavone]
serum TNF-α levels [3]: reduced serum TNF-α levels
IL-1β mRNA expression in the hippocampus [4]: downregulates
IC50 [2]: 63 µM
inhibition of LPS-induced bone resorption [5]: > 90%

COc1c(OC)c(OC)c2c(=O)cc(-c3ccc(O)cc3)oc2c1OC [4′-Demethyltangeretin, 4′-Hydroxy-5,6,7,8-Tetramethoxyflavone]
IC50 [6]: 18 µM
inhibitory effect on IL-1-induced osteoclast differentiation relative to nobiletin and tangeretin, respectively [6]: potent inhibitory effects
IC50 [7]: 7 µM

O=c1cc(-c2ccc(O)cc2)oc2cc(O)c(O)c(O)c12 [Scutellarein]
IC50 [8]: > 100 µM

COc1ccc(-c2cc(=O)c3c(OC)c(OC)c(OC)c(OC)c3o2)cc1 [Tangeretin, 4′,5,6,7,8-Pentamethoxyflavone]
oxidative stress and inflammation [9]: reduced oxidative stress and inflammation
suppression of osteoclast differentiation induced by IL-1, LPS, or soluble RANKL (sRANKL) [10]: 70–90%
IC50 [6]: 18 µM
IC50 [2]: 32 µM
osteoclast differentiation in Raw264.7 cultures, inhibited ([7]; 30 μM): 71% inhibited [8]
IC50 [7]: 16 µM
osteoclast differentiation in co-culture system, inhibited [11]: 94% inhibited [8]
proliferation of rheumatoid synovial fibroblasts (RASFs) [12]: significantly inhibits
alveolar bone loss in mice, restored ([13]; 30 μg/mouse): 0% restored [8]
alveolar bone loss in mice, restored ([13]; 100 μg/mouse): 2% restored [8]
alveolar bone loss in mice, restored ([13]; 500 μg/mouse): 4% restored [8]

COc1ccc([C@@H]2CC(=O)c3c(O)cc(O)cc3O2)cc1O [Hesperetin, reference compound]
anti-angiogenic effect on zebrafish embryos, inhibited ([14]; listed as hesperitin): ~30%
anti-angiogenic effect on zebrafish embryos, inhibited [14]: 30% inhibited [47]
IC50 [8]: > 100 µM

COc1cc(-c2cc(=O)c3c(O)c(OC)c(O)c(OC)c3o2)ccc1O [Sudachitin, 4′,5,7-Trihydroxy-3′,6,8-trimethoxyflavone]
production of MMP-1 and MMP-3 [15]: reduced the production
RANKL-induced osteoclast differentiation [16]: dose-dependently suppressed

COc1ccc(-c2cc(=O)c3c(OC)c(OC)c(OC)cc3o2)cc1 [Scutellarein tetra-methylether]
IC50 [8]: > 100 µM

COc1ccc(-c2cc(=O)c3c(OC)c(OC)c(OC)cc3o2)cc1OC [Sinensetin, 3′,4′,5,6,7-Pentamethoxyflavone]
anti-angiogenic effect on zebrafish embryos, inhibited ([14]; listed as sinensetin): approximately 95%
anti-angiogenic effect on zebrafish embryos, inhibited [14]: 95% inhibited [47]
binding to BACH1 [17]: directly binds
alveolar bone resorption [18]: suppressed alveolar bone resorption
disease progression [19]: protects against disease progression
IC50 [2]: > 400 µM
IC50 [8]: 24 µM
oxidative stress and inflammation [20]: dose-dependently reduced

COc1cc(-c2cc(=O)c3c(OC)c(OC)c(OC)c(OC)c3o2)ccc1O [4′-Demethylnobiletin, 4′-Hydroxy-3′,5,6,7,8-Pentamethoxyflavone]
IC50 [6]: 13 µM
inhibitory effect on IL-1-induced osteoclast differentiation relative to nobiletin and tangeretin, respectively [6]: potent inhibitory effects
IC50 [7]: 1 µM
